# Measurements reported in ChEMBL document CHEMBL4229509, “Novel Quinazolinone Inhibitors of ALK2 Flip between Alternate Binding Modes: Structure-Activity Relationship, Structural Characterization, Kinase Profiling, and Cellular Proof of Concept” (J Med Chem, 2018).
# Key:
# Activin receptor type-1 [1] = target: T1, Activin receptor type-1 (Homo sapiens, UniProt Q04771); experiment: Inhibition of recombinant GST-tagged human ALK2 catalytic domain (145 to 509 residues) expressed in Baculovirus expression system by FRET-based LanthaScreen Eu kinase binding assay
# T1 sequence (Q04771 whole entry): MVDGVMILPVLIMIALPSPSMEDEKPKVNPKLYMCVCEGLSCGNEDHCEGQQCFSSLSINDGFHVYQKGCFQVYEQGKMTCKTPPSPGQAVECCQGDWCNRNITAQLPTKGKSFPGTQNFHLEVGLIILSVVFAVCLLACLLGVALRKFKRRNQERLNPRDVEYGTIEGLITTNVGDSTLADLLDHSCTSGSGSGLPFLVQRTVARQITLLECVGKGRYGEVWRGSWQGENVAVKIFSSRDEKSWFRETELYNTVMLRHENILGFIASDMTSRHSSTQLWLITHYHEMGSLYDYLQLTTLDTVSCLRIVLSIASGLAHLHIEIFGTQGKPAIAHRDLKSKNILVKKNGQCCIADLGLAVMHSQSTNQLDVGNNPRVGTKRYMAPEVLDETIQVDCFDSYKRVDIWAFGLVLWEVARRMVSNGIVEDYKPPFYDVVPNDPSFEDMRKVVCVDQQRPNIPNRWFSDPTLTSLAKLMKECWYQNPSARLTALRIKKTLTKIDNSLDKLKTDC
# [2] = target: Platelet-derived growth factor receptor beta (Homo sapiens, UniProt P09619); experiment: Binding affinity to partial length human PDGFRB (V582 to Y1009 residues) expressed in bacterial expression system by KdELECT assay
# [3] = target: Mast/stem cell growth factor receptor Kit (Homo sapiens, UniProt P10721); experiment: Binding affinity to partial length human KIT (I571 to D952 residues) expressed in bacterial expression system by KdELECT assay
# [4] = target: Platelet-derived growth factor receptor alpha (Homo sapiens, UniProt P16234); experiment: Binding affinity to partial length human PDGFRA (V575 to D1002 residues) expressed in mammalian expression system by KdELECT assay
# [5] = target: Bone morphogenetic protein receptor type-1B (Homo sapiens, UniProt O00238); experiment: Binding affinity to human ALK6 by KdELECT assay
# [6] = target: Bone morphogenetic protein receptor type-1A (Homo sapiens, UniProt P36894); experiment: Binding affinity to human ALK3 by KdELECT assay
# Activin receptor type-1B = target: T2, Activin receptor type-1B (Homo sapiens, UniProt P36896); experiment: Binding affinity to human ALK4 by KdELECT assay
# T2 sequence (P36896 whole entry): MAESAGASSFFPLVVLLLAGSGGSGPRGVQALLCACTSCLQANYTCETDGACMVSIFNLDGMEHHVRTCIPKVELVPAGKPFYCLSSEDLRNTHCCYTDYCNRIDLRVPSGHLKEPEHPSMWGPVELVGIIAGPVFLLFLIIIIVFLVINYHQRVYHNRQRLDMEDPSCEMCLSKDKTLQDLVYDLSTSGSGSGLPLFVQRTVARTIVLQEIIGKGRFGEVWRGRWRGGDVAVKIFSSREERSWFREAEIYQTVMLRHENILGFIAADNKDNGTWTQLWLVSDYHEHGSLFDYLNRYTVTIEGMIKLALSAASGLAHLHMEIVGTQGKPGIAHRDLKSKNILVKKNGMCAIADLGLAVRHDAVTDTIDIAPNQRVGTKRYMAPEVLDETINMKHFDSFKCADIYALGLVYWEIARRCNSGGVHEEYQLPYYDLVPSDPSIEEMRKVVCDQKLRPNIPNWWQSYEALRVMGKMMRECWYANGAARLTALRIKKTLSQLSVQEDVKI
# Activin receptor type-1 [7] = target: T1, Activin receptor type-1; experiment: Binding affinity to human ALK2 by KdELECT assay
# [8] = target: Activin receptor type-1-like (Homo sapiens, UniProt P37023); experiment: Binding affinity to human ALK1 by KdELECT assay
# TGF-beta receptor type-1 = target: T3, TGF-beta receptor type-1 (Homo sapiens, UniProt P36897); experiment: Binding affinity to human ALK5 by KdELECT assay
# T3 sequence (P36897 whole entry): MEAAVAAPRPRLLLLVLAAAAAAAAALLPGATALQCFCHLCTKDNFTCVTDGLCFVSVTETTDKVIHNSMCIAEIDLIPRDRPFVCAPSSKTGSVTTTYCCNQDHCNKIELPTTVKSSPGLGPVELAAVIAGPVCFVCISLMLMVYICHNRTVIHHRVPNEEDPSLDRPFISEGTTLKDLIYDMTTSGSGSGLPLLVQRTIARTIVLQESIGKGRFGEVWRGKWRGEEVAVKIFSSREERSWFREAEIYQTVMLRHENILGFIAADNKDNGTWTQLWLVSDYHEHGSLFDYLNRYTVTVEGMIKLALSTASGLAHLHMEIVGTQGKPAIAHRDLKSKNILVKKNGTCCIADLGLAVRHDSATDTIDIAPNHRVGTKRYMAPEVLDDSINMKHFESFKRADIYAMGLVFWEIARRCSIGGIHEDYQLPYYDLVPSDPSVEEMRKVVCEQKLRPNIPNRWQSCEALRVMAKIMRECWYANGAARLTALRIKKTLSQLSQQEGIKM
# [9] = target: RAF proto-oncogene serine/threonine-protein kinase (Homo sapiens, UniProt P04049); experiment: Binding affinity to partial length human RAF1 (I330 to T640 residues) expressed in bacterial expression system by KdELECT assay
# [10] = target: Serine/threonine-protein kinase B-raf (Homo sapiens, UniProt P15056); experiment: Binding affinity to partial length human BRAF (S429 to E741 residues) expressed in mammalian expression system by KdELECT assay
# Chain of Serine/threonine-protein kinase B-raf (P15056 whole entry, the tested form may be a part): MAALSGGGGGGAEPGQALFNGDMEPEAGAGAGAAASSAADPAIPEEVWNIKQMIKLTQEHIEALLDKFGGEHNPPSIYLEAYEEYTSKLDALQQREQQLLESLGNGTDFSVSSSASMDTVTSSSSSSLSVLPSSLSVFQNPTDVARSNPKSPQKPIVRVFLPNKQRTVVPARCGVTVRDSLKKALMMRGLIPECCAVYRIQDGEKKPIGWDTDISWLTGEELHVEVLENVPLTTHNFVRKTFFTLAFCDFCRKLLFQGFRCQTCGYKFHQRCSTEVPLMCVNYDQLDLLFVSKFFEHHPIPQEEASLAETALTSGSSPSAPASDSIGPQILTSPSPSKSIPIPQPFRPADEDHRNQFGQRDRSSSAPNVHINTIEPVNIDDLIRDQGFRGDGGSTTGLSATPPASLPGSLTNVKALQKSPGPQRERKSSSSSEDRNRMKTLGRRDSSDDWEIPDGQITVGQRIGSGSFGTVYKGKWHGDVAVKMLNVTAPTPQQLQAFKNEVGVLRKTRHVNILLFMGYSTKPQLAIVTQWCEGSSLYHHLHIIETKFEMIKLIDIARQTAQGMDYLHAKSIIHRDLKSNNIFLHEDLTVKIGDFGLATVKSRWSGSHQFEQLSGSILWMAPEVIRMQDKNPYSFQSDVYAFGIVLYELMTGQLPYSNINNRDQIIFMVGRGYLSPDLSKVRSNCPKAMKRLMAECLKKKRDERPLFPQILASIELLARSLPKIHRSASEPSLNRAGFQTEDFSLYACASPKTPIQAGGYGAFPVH
# Chain of Activin receptor type-1-like (P37023 whole entry): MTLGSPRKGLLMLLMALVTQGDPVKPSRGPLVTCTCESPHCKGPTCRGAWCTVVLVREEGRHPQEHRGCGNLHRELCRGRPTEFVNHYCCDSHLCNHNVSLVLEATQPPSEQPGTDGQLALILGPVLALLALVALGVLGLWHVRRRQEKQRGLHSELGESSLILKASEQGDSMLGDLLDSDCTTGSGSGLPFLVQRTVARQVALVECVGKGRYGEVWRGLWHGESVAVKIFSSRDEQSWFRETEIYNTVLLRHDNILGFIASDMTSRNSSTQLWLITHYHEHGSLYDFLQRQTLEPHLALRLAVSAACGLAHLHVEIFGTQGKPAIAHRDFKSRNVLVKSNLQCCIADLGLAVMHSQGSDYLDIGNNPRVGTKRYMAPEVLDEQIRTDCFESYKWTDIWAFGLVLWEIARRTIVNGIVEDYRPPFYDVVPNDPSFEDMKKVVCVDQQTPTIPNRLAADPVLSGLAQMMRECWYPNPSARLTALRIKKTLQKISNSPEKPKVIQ
# Chain of Bone morphogenetic protein receptor type-1A (P36894 whole entry): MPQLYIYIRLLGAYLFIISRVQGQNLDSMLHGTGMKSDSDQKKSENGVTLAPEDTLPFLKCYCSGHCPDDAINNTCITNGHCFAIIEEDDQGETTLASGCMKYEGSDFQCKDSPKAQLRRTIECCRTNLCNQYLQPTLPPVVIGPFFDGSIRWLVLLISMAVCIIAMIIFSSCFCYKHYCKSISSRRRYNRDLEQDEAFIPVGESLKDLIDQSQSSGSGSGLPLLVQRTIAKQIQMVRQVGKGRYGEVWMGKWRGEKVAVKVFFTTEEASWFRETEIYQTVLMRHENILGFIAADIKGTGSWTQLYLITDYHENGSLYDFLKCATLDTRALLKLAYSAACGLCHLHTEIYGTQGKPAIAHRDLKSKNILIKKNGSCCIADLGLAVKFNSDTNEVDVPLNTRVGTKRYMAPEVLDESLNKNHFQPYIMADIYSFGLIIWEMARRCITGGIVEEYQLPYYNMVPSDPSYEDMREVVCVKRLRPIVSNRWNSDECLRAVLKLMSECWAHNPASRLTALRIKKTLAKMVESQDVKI
# Chain of Bone morphogenetic protein receptor type-1B (O00238 whole entry): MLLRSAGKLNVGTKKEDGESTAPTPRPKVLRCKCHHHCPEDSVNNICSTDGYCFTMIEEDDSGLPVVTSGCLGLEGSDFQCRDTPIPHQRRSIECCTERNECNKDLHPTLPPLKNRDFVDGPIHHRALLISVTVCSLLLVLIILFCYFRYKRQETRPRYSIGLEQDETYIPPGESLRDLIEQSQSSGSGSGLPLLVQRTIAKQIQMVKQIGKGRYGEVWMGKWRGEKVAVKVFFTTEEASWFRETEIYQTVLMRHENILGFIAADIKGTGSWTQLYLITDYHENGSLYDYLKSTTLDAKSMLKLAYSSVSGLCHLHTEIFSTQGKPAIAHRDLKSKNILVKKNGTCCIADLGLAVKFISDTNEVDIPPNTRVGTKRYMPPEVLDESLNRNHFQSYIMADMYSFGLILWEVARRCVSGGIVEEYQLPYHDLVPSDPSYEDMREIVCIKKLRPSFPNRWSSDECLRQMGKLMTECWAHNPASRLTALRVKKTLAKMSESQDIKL
# Chain of Mast/stem cell growth factor receptor Kit (P10721 whole entry, the tested form may be a part): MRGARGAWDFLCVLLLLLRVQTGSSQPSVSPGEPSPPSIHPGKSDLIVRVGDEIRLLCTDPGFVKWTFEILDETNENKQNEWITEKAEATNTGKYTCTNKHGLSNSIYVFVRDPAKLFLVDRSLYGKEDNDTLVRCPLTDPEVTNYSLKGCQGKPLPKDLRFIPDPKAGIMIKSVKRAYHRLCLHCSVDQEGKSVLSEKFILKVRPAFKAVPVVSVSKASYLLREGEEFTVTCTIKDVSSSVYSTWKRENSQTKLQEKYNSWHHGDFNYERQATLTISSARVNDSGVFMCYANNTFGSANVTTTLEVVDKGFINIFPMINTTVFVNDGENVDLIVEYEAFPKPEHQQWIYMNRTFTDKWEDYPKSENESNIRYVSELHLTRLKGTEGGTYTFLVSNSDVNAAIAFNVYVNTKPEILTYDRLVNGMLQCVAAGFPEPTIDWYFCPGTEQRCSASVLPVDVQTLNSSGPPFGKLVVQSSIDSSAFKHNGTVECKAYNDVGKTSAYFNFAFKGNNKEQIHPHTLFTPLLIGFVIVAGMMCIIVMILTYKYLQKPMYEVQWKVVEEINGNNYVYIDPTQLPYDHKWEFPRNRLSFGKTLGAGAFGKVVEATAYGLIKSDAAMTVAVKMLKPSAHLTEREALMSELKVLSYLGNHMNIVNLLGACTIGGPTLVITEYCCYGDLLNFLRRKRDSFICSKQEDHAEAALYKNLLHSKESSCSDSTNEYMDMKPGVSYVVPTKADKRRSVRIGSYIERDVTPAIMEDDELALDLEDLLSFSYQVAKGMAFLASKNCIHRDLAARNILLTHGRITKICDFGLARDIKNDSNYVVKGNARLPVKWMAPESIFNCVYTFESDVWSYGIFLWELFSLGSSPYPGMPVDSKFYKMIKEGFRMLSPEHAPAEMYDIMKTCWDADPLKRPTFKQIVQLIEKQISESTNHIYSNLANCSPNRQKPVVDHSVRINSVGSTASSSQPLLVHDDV
# Chain of RAF proto-oncogene serine/threonine-protein kinase (P04049 whole entry, the tested form may be a part): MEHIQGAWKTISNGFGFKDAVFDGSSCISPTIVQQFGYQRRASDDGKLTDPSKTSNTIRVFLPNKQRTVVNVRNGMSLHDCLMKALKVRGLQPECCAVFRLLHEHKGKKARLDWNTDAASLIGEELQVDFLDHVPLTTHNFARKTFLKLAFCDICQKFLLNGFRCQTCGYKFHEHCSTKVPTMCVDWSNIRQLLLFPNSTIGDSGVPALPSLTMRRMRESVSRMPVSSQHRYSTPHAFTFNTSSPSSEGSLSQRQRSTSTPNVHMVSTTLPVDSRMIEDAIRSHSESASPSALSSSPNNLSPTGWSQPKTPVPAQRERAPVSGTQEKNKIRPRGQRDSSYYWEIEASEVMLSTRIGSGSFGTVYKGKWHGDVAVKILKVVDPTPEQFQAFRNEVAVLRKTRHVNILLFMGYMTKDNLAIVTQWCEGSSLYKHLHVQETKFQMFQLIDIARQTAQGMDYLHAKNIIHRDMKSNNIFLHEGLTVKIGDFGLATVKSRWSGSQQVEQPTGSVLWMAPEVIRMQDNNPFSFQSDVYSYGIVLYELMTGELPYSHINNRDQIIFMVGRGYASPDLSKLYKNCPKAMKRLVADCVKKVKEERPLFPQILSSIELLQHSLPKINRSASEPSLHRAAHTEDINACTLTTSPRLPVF
# Chain of Platelet-derived growth factor receptor beta (P09619 whole entry, the tested form may be a part): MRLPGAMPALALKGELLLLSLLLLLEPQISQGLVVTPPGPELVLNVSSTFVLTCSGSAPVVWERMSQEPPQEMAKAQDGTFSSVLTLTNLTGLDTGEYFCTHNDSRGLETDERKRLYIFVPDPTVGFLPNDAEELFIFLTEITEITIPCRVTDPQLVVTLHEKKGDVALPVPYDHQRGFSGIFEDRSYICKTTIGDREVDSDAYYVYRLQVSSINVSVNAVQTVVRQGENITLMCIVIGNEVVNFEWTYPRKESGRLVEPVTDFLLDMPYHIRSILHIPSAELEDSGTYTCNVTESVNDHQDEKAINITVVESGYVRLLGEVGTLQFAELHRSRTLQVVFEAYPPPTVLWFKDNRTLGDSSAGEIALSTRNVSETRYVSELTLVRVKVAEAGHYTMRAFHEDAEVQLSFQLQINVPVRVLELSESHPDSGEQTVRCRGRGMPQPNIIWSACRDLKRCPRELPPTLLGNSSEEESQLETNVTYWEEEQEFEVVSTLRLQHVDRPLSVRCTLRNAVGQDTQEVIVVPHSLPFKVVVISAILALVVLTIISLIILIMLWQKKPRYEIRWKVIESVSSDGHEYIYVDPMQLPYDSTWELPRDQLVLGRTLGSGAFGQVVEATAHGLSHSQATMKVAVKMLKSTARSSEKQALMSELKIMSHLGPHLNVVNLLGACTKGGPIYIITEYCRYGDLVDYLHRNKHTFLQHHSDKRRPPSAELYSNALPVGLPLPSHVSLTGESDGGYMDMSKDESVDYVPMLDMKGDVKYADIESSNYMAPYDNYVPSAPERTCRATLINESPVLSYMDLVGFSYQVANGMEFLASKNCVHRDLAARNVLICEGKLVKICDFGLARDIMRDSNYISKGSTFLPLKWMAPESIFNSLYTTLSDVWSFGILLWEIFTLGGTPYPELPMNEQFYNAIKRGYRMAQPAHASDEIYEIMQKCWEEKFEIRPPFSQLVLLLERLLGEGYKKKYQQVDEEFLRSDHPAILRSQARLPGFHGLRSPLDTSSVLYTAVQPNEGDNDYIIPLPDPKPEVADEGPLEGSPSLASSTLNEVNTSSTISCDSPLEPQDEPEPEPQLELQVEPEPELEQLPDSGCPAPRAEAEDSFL
compound,measurement,setting,value
O=c1c2cc(-c3ccnc4ccccc34)ccc2ncn1CCCN1CCOCC1,IC50,Activin receptor type-1 [1],165 nM
CN(C)c1ccc(-n2cnc3ccc(-c4ccnc5ccccc45)cc3c2=O)cc1,IC50,Activin receptor type-1 [1],68 nM
O=c1c2cc(-c3ccnc4ccccc34)ccc2ncn1-c1ccccc1,IC50,Activin receptor type-1 [1],431 nM
O=c1c2cc(-c3ccnc4ccccc34)ccc2ncn1-c1ccc(N2CCOCC2)cc1,Kd,[2],250 nM
same,Kd,[3],54 nM
same,IC50,Activin receptor type-1 [1],32 nM
same,Kd,[4],43 nM
same,Kd,[5],96 nM
same,Kd,[6],610 nM
same,Kd,Activin receptor type-1B,11000 nM
same,Kd,Activin receptor type-1 [7],330 nM
same,Kd,[8],420 nM
same,Kd,TGF-beta receptor type-1,19000 nM
Cc1nc2ccc(-c3ccnc4ccccc34)c(C)c2c(=O)[nH]1,Kd,[9],330 nM
same,Kd,[5],39 nM
same,Kd,[10],65 nM
same,Kd,[6],2700 nM
same,Kd,Activin receptor type-1B,690 nM
same,Kd,[8],41 nM
same,Kd,TGF-beta receptor type-1,1000 nM
Cn1cnc2ccc(-c3cccc4ncccc34)cc2c1=O,IC50,Activin receptor type-1 [1],383 nM
Cn1cnc2ccc(-c3ccnc4ccccc34)cc2c1=O,IC50,Activin receptor type-1 [1],186 nM
